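Tested at 5 concentrations; 48 h exposure; 96-well plates; endpoints linearly interpolated, else capped at highest concentration. GI50 is the concentration that inhibits growth by half. TGI is the concentration that stops growth completely.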
Legend:
Assay in all cases: growth of human tumour cells (NCI), 48 h
786-0 renal = tested on: 786-0 renal
A549 NSCLC = tested on: A549 NSCLC
CAKI-1 renal = tested on: CAKI-1 renal
CCRF-CEM leukemia = tested on: CCRF-CEM leukemia
DU-145 prostate = tested on: DU-145 prostate
LOX IMVI melanoma = tested on: LOX IMVI melanoma
NCI-H23 lung = tested on: NCI-H23 lung
T-47D breast = tested on: T-47D breast

Compound: Cc1c(Cl)c(=O)oc2cc(OC/C=C3\CCC(=O)O3)ccc12
- GI50 (786-0 renal): 12.8 µM
- TGI (786-0 renal): 29.3 µM
- GI50 (A549 NSCLC): 58.2 µM
- TGI (A549 NSCLC): > 100 µM
- GI50 (CAKI-1 renal): 11.6 µM
- TGI (CAKI-1 renal): 30.2 µM
- GI50 (CCRF-CEM leukemia): 12.5 µM
- TGI (CCRF-CEM leukemia): 61.3 µM
- GI50 (DU-145 prostate): 14 µM
- TGI (DU-145 prostate): 29.4 µM
- GI50 (LOX IMVI melanoma): 15.6 µM
- TGI (LOX IMVI melanoma): 29.7 µM
- GI50 (NCI-H23 lung): 17.4 µM
- TGI (NCI-H23 lung): 32.7 µM
- GI50 (T-47D breast): 13.6 µM
- TGI (T-47D breast): 36.2 µM

Compound: Cc1ccc(C(=O)c2sc3nc4c(cc3c2N)CCCC4)c(C)c1
- GI50 (786-0 renal): 0.617 µM
- TGI (786-0 renal): > 100 µM
- GI50 (A549 NSCLC): 0.377 µM
- TGI (A549 NSCLC): > 100 µM
- GI50 (CAKI-1 renal): 0.361 µM
- TGI (CAKI-1 renal): > 100 µM
- GI50 (CCRF-CEM leukemia): 0.311 µM
- TGI (CCRF-CEM leukemia): > 100 µM
- GI50 (DU-145 prostate): 0.838 µM
- TGI (DU-145 prostate): > 100 µM
- GI50 (LOX IMVI melanoma): 0.502 µM
- TGI (LOX IMVI melanoma): > 100 µM
- GI50 (NCI-H23 lung): 0.776 µM
- TGI (NCI-H23 lung): > 100 µM
- GI50 (T-47D breast): 0.45 µM
- TGI (T-47D breast): > 69.8 µM

Compound: CNCC/C=C1\c2cc3c(cc2-c2c1c1cc(OC)c(OC)cc1c(=O)n2C)OCO3
- GI50 (786-0 renal): 0.587 µM
- TGI (786-0 renal): 33 µM
- GI50 (A549 NSCLC): 1.85 µM
- TGI (A549 NSCLC): 18.8 µM
- GI50 (CAKI-1 renal): 0.278 µM
- TGI (CAKI-1 renal): 5.92 µM
- GI50 (CCRF-CEM leukemia): < 0.01 µM
- GI50 (DU-145 prostate): 0.428 µM
- TGI (DU-145 prostate): 8.84 µM
- GI50 (LOX IMVI melanoma): 0.51 µM
- TGI (LOX IMVI melanoma): 2.57 µM
- GI50 (NCI-H23 lung): 1.33 µM
- TGI (NCI-H23 lung): 7.75 µM
- GI50 (T-47D breast): 4.19 µM
- TGI (T-47D breast): 25.5 µM

Compound: O=C(O)c1cc2ccccc2c2c3c(ccc12)OCO3
- GI50 (786-0 renal): 273 µM
- TGI (786-0 renal): 936 µM
- GI50 (A549 NSCLC): 197 µM
- TGI (A549 NSCLC): 621 µM
- GI50 (CAKI-1 renal): 185 µM
- TGI (CAKI-1 renal): 761 µM
- GI50 (DU-145 prostate): 303 µM
- TGI (DU-145 prostate): > 1000 µM
- GI50 (LOX IMVI melanoma): 223 µM
- TGI (LOX IMVI melanoma): 766 µM
- GI50 (NCI-H23 lung): 188 µM
- TGI (NCI-H23 lung): 584 µM
- GI50 (T-47D breast): 209 µM
- TGI (T-47D breast): 750 µM

Compound: NCCCCCNc1noc(Cc2c[nH]c3cc(Br)ccc23)n1
- GI50 (786-0 renal): 5.24 µM
- TGI (786-0 renal): 27.1 µM
- GI50 (A549 NSCLC): 3.88 µM
- TGI (A549 NSCLC): 38.8 µM
- GI50 (CAKI-1 renal): 6.84 µM
- TGI (CAKI-1 renal): > 100 µM
- GI50 (CCRF-CEM leukemia): 1.81 µM
- TGI (CCRF-CEM leukemia): 8.2 µM
- GI50 (DU-145 prostate): 3.11 µM
- TGI (DU-145 prostate): 9.01 µM
- GI50 (LOX IMVI melanoma): 2.81 µM
- TGI (LOX IMVI melanoma): 17.6 µM
- GI50 (NCI-H23 lung): 1.76 µM
- TGI (NCI-H23 lung): 8.75 µM
- GI50 (T-47D breast): 5.15 µM
- TGI (T-47D breast): 30.1 µM

Compound: C=C1C(=O)OC2C1C(OC(=O)/C(C)=C/C)CC(O)(CCl)C1C(O)C=C(C)C21O (configuration not stated)
- TGI (786-0 renal): 18.4 µM
- TGI (A549 NSCLC): > 63.7 µM
- TGI (CAKI-1 renal): 11.4 µM
- TGI (CCRF-CEM leukemia): > 36.8 µM
- TGI (DU-145 prostate): 30.7 µM
- TGI (LOX IMVI melanoma): 17.8 µM
- TGI (NCI-H23 lung): 28.3 µM
- TGI (T-47D breast): 42.2 µM

Compound: O=C(NCCc1ccccc1)Nc1ccc2cc3ccc(NC(=O)NCCc4ccccc4)cc3nc2c1
- GI50 (786-0 renal): 2.07 µM
- TGI (786-0 renal): 6.93 µM
- GI50 (A549 NSCLC): 3.16 µM
- TGI (A549 NSCLC): 14.7 µM
- GI50 (CAKI-1 renal): 4.65 µM
- TGI (CAKI-1 renal): > 100 µM
- GI50 (CCRF-CEM leukemia): 0.301 µM
- TGI (CCRF-CEM leukemia): 0.945 µM
- GI50 (DU-145 prostate): 1.24 µM
- TGI (DU-145 prostate): 2.76 µM
- GI50 (LOX IMVI melanoma): 0.202 µM
- TGI (LOX IMVI melanoma): 0.445 µM
- GI50 (NCI-H23 lung): 0.857 µM
- TGI (NCI-H23 lung): 2.48 µM
- GI50 (T-47D breast): 0.983 µM
- TGI (T-47D breast): 2.31 µM

Compound: [N-]=[N+]=NCCCn1c2c(c3ccc([N+](=O)[O-])cc3c1=O)C(=O)c1cc3c(cc1-2)OCO3
- GI50 (786-0 renal): < 0.0141 µM
- TGI (786-0 renal): < 0.025 µM
- GI50 (A549 NSCLC): < 0.0388 µM
- TGI (A549 NSCLC): 2.87 µM
- GI50 (CAKI-1 renal): < 0.01 µM
- TGI (CAKI-1 renal): < 0.0152 µM
- GI50 (CCRF-CEM leukemia): < 0.01 µM
- TGI (CCRF-CEM leukemia): 0.0679 µM
- GI50 (DU-145 prostate): 0.0342 µM
- TGI (DU-145 prostate): 0.271 µM
- GI50 (LOX IMVI melanoma): < 0.01 µM
- TGI (LOX IMVI melanoma): 1.02 µM
- GI50 (NCI-H23 lung): < 0.01 µM
- TGI (NCI-H23 lung): < 0.01 µM
- GI50 (T-47D breast): 0.656 µM
- TGI (T-47D breast): > 100 µM

Compound: COc1cc(-n2cc(-c3ccccc3)[nH]c2=O)cc(OC)c1OC
- GI50 (786-0 renal): 23.7 µM
- TGI (786-0 renal): 91.1 µM
- GI50 (A549 NSCLC): 38.9 µM
- TGI (A549 NSCLC): > 100 µM
- GI50 (CAKI-1 renal): 37.8 µM
- TGI (CAKI-1 renal): > 100 µM
- GI50 (CCRF-CEM leukemia): > 100 µM
- TGI (CCRF-CEM leukemia): > 100 µM
- GI50 (LOX IMVI melanoma): > 100 µM
- TGI (LOX IMVI melanoma): > 100 µM
- GI50 (NCI-H23 lung): > 100 µM
- TGI (NCI-H23 lung): > 100 µM
- GI50 (T-47D breast): 30.5 µM
- TGI (T-47D breast): > 100 µM

Compound: O=C(Nc1cccc(-n2cc(-c3ccncc3)c(-c3ccc(O)c(Cl)c3)n2)c1)c1ccc2c(c1)OCCO2
- GI50 (786-0 renal): 3.27 µM
- TGI (786-0 renal): > 100 µM
- GI50 (A549 NSCLC): 5.85 µM
- TGI (A549 NSCLC): > 100 µM
- GI50 (CAKI-1 renal): 6.34 µM
- TGI (CAKI-1 renal): > 100 µM
- GI50 (CCRF-CEM leukemia): 3.75 µM
- TGI (CCRF-CEM leukemia): > 100 µM
- GI50 (DU-145 prostate): > 100 µM
- TGI (DU-145 prostate): > 100 µM
- GI50 (LOX IMVI melanoma): 4.77 µM
- TGI (LOX IMVI melanoma): > 100 µM
- GI50 (NCI-H23 lung): > 100 µM
- TGI (NCI-H23 lung): > 100 µM
- GI50 (T-47D breast): 3.44 µM
- TGI (T-47D breast): > 100 µM

Compound: N#Cc1cnc2cc(OC[C@@H](O)CO)c(NC(=O)C3CCCC3)cc2c1Nc1ccc(OCc2cccc(F)c2)c(Cl)c1
- GI50 (786-0 renal): 4.51 µM
- TGI (786-0 renal): 11.7 µM
- GI50 (A549 NSCLC): 6.74 µM
- TGI (A549 NSCLC): 14.9 µM
- GI50 (CAKI-1 renal): 5.61 µM
- TGI (CAKI-1 renal): > 50 µM
- GI50 (CCRF-CEM leukemia): 0.48 µM
- TGI (CCRF-CEM leukemia): 2.19 µM
- GI50 (DU-145 prostate): 0.712 µM
- TGI (DU-145 prostate): 1.42 µM
- GI50 (LOX IMVI melanoma): 1.01 µM
- TGI (LOX IMVI melanoma): 2.28 µM
- GI50 (NCI-H23 lung): 1.87 µM
- TGI (NCI-H23 lung): 11.9 µM
- GI50 (T-47D breast): 1.13 µM
- TGI (T-47D breast): 4.31 µM

Compound: OB(O)c1ccccc1C#Cc1ccccc1B(O)O
- TGI (786-0 renal): > 100 µM
- TGI (A549 NSCLC): 96.1 µM
- TGI (CAKI-1 renal): 22.1 µM
- TGI (CCRF-CEM leukemia): > 100 µM
- TGI (DU-145 prostate): 82.4 µM
- TGI (LOX IMVI melanoma): 51.1 µM
- TGI (NCI-H23 lung): 90.9 µM
- TGI (T-47D breast): 83.6 µM

Compound: C/C=C/C/C=C/[C@H](C)C[C@H](O)[C@@H]1C[C@@H]2O[C@H]2/C=C/[C@@H]2OC(C)(C)O[C@H]2/C=C/C[C@H](C)CC(=O)O1
- GI50 (786-0 renal): 69.7 µM
- TGI (786-0 renal): > 100 µM
- GI50 (A549 NSCLC): 8.79 µM
- TGI (A549 NSCLC): > 100 µM
- GI50 (CAKI-1 renal): 2.9 µM
- TGI (CAKI-1 renal): 31.1 µM
- GI50 (CCRF-CEM leukemia): 2.78 µM
- TGI (CCRF-CEM leukemia): 56.4 µM
- GI50 (DU-145 prostate): 12.3 µM
- TGI (DU-145 prostate): > 100 µM
- GI50 (LOX IMVI melanoma): 7.62 µM
- TGI (LOX IMVI melanoma): > 100 µM
- GI50 (NCI-H23 lung): 6.08 µM
- TGI (NCI-H23 lung): > 100 µM
- GI50 (T-47D breast): 2.18 µM
- TGI (T-47D breast): 8.53 µM

Compound: CC(=O)Oc1ccc2c(c1)[C@@]1(C)CCCC(C)(C)[C@@H]1CC2
- GI50 (786-0 renal): 18.1 µM
- TGI (786-0 renal): 32.8 µM
- GI50 (A549 NSCLC): 24.7 µM
- TGI (A549 NSCLC): 64.8 µM
- GI50 (CAKI-1 renal): 28 µM
- TGI (CAKI-1 renal): > 100 µM
- GI50 (CCRF-CEM leukemia): 87.4 µM
- TGI (CCRF-CEM leukemia): > 100 µM
- GI50 (LOX IMVI melanoma): 17.7 µM
- TGI (LOX IMVI melanoma): 32.1 µM
- GI50 (NCI-H23 lung): 19.8 µM
- TGI (NCI-H23 lung): 37.6 µM
- GI50 (T-47D breast): 37.5 µM
- TGI (T-47D breast): > 100 µM

Compound: COc1cccc(-c2nn(-c3ccccc3)cc2-c2ccnc(NCCCNC(=O)c3cccc(C(F)(F)F)c3)c2)c1
- GI50 (786-0 renal): 3.75 µM
- TGI (786-0 renal): 15.1 µM
- GI50 (A549 NSCLC): 4.07 µM
- TGI (A549 NSCLC): 16.2 µM
- GI50 (CAKI-1 renal): 6.27 µM
- TGI (CAKI-1 renal): 32.5 µM
- GI50 (CCRF-CEM leukemia): 6.11 µM
- TGI (CCRF-CEM leukemia): > 100 µM
- GI50 (DU-145 prostate): 8.72 µM
- TGI (DU-145 prostate): 66.3 µM
- GI50 (LOX IMVI melanoma): 4.55 µM
- TGI (LOX IMVI melanoma): 18.3 µM
- GI50 (NCI-H23 lung): 4.49 µM
- TGI (NCI-H23 lung): 24.2 µM
- GI50 (T-47D breast): 2.33 µM
- TGI (T-47D breast): 8.4 µM
